# Source: patent US8912121B2, “Herbicidal compositions comprising 4-amino-3-chloro-5-fluoro-6-(4-chloro-2-fluoro-3-methoxyphenyl)pyridine-2-carboxylic acid or a derivative thereof and certain PS II inhibitors” (Dow Agrosciences LLC, priority 2012, dated 2014)
# What was measured:
# [1] = system: AMARE (Amaranthus retroflexus, redroot pigweed); assay: Postemergence herbicidal activity of mixtures in cereal crops, greenhouse; format: in vivo, Amaranthus retroflexus L.
# Description: (§1) Seeds of the desired test plant species were planted in Sun Gro MetroMix® 306 planting mixture, which typically has a pH of 6.0 to 6.8 and an organic matter content of about 30 percent, in plastic pots with a surface area of 103.2 square centimeters (cm^2). When required to ensure good germination and healthy plants, a fungicide treatment and/or other chemical or physical treatment was applied. The plants were grown for 7-36 days in a greenhouse with an approximate 14 hour photoperiod which was maintained at about 18° C. during the day and about 17° C. during the night. Nutrients and water were added on a regular basis and supplemental lighting was provided with overhead metal halide 1000-Watt lamps as necessary. The plants were employed for testing when they reached the second or third true leaf stage.
# (§2) Treatments consisted of the benzyl ester of 4-amino-3-chloro-5-fluoro-6-(4-chloro-2-fluoro-3-methoxy-phenyl)pyridine-2-carboxylic acid (Compound A), formulated as an SC, a second cereal herbicide alone and then both in combination.
# (§3) Other herbicidal components were applied on an active ingredient basis and included PSII-inhibiting herbicides.
# (§4) Measured aliquots of benzyl ester of 4-amino-3-chloro-5-fluoro-6-(4-chloro-2-fluoro-3-methoxy-phenyl)pyridine-2-carboxylic acid (Compound A) were placed in 25 milliliter (mL) glass vials and diluted in a volume of 1.25% (v/v) Agri-Dex® crop oil concentrate to obtain stock solutions. Compound requirements are based upon a 12 mL application volume at a rate of 187 liters per hectare (L/ha). Spray solutions of the second cereal herbicide and experimental compound mixtures were prepared by adding the stock solutions to the appropriate amount of dilution solution to form 12 mL spray solution with active ingredients in two- and three-way combinations. Formulated compounds were applied to the plant material with an overhead Mandel track sprayer equipped with an 8002E nozzle calibrated to deliver 187 L/ha over an application area of 0.503 square meters (m^2) at a spray height of 18 inches (46 cm) above average plant canopy. Control plants were sprayed in the same manner with the solvent blank.
# (§5) The treated plants and control plants were placed in a greenhouse as described above and watered by sub-irrigation to prevent wash-off of the test compounds. After 20-22 days, the condition of the test plants as compared with that of the control plants was determined visually and scored on a scale of 0 to 100 percent where 0 corresponds to no injury and 100 corresponds to complete kill.
# Colby's equation was used to determine the herbicidal effects expected from the mixtures (Colby, S. R. 1967. Calculation of the synergistic and antagonistic response of herbicide combinations. Weeds 15:20-22). […]
# [2] = system: KCHSC (Kochia scoparia, kochia); assay: as above; format: in vivo, Kochia scoparia (L.) Schrad.
# Description: as §1, §2, §3, §4, §5
# Colby's equation was used to determine the herbicidal effects expected from the mixtures (Colby, S. R. 1967. Calculation of the synergistic and antagonistic response of herbicide combinations. Weeds 15:20-22).
# The following equation was used to calculate the expected activity of mixtures containing two active ingredients, A and B: Expected=A+B−(A×B/100)
# [3] = system: BRAPP (Brachiaria platyphylla, broadleaf signalgrass); assay: Pre-emergence soil-applied mixtures, greenhouse; format: in vivo, Brachiaria platyphylla (Groseb.) Nash
# Source text: (§6) Seeds or nutlets of the desired test plant species were planted in a soil matrix prepared by mixing a loam soil (32 percent silt, 23 percent clay, and 45 percent sand, with a pH of about 6.5 and an organic matter content of about 1.9 percent) and calcareous grit in an 80 to 20 ratio. The soil matrix was contained in plastic pots with a volume of 1 quart and a surface area of 83.6 square centimeters (cm^2).
# (§7) Treatments consisted of the benzyl ester of 4-amino-3-chloro-5-fluoro-6-(4-chloro-2-fluoro-3-methoxy-phenyl)pyridine-2-carboxylic acid (compound A) formulated as an SC (suspension concentrate) and various herbicidal components alone and in combination. Forms of compound A were applied on an acid equivalent basis.
# (§8) Other herbicidal components were applied on an acid equivalent or active ingredient basis and included the PSII-inhibiting herbicides, atrazine formulated as Atrazine® 90WDG, metribuzin formulated as Metribuzin 75DF, simazine formulated as Princep Caliber 90, tebuthiuron formulated as Spike 80DF, cyanazine (technical grade material), hexazinone (technical grade material), linuron (technical grade material), terbuthylazine (technical grade material), and diuron formulated as Diuron 4L.
# (§9) Treatment requirements were calculated based upon the rates being tested, the concentration of active ingredient or acid equivalent in the formulation, and a 12 mL application volume at a rate of 187 L/ha.
# (§10) For treatments comprised of formulated compounds, measured amounts of compounds were placed individually in 25 mL glass vials and diluted in a volume of 1.25% (v/v) Agri-Dex® crop oil concentrate (COC) to obtain 12× stock solutions. […] Application solutions were prepared by adding an appropriate amount of each stock solution (e.g., 1 mL) and diluted to the appropriate final concentrations with the addition of 10 mL of an aqueous mixture of 1.25% (v/v) COC so that the final spray solutions contained 1.25% (v/v) COC.
# (§11) For treatments comprised of technical compounds, weighed amounts can be placed individually in 25 mL glass vials and dissolved in a volume of 97:3 (v/v) acetone/DMSO to obtain 12× stock solutions. […] Application solutions can be prepared by adding an appropriate amount of each stock solution (e.g., 1 mL) and diluted to the appropriate final concentrations with the addition of 10 mL of an aqueous mixture of 1.5% (v/v) COC so that the final spray solutions contain 1.25% (v/v) COC. When technical materials are used, the concentrated stock solutions can be added to the spray solutions so that the final acetone and DMSO concentrations of the application solutions are 16.2% and 0.5%, respectively.
# (§12) For treatments comprised of formulated and technical compounds, weighed amounts of the technical materials can be placed individually in 25 mL glass vials and dissolved in a volume of 97:3 (v/v) acetone/DMSO to obtain 12× stock solutions, and measured amounts of the formulated compounds can be placed individually in 25 mL glass vials and diluted in a volume of 1.5% (v/v) COC or water to obtain 12× stock solutions. […] Application solutions can be prepared by adding an appropriate amount of each stock solution (e.g., 1 mL) and diluted to the appropriate final concentrations with the addition of an appropriate amount of an aqueous mixture of 1.5% (v/v) COC so that the final spray solutions contain 1.25% (v/v) COC. As required, additional water and/or 97:3 (v/v) acetone/DMSO can be added to individual application solutions so that the final acetone and DMSO concentrations of the application solutions being compared are 8.1% and 0.25%, respectively.
# All stock solutions and applications solutions were visually inspected for compound compatibility prior to application. Spray solutions were applied to the soil with an overhead Mandel track sprayer equipped with a 8002E nozzles calibrated to deliver 187 L/ha over an application area of 0.503 m^2 at a spray height of 18 inches (46 cm) above average pot height. […]
# [4] = system: ABUTH (Abutilon theophrasti, velvetleaf); assay: Pre-emergence soil-applied mixtures, greenhouse; format: in vivo, Abutilon theophrasti Medik.
# Source text: as §6, §7, §8, §9, §10, §11
# as §12, with “As required, additional water and/or 97:3 (v/v) acetone/DMSO can be added to individual application solutions so that the final acetone and DMSO concentrations of the application solutions being compared are 8.1% and 0.25%, respectively.” left out
# [5] = Compound A Benzyl Ester 2.5 g ai/ha
# [6] = Compound A Benzyl Ester 5 g ai/ha
# [7] = Compound A Benzyl Ester 16 g ae/ha
# [8] = Compound A Benzyl Ester 32 g ae/ha
smiles,measurement,setting,value
"COc1c(Cl)ccc(-c2nc(C(=O)OCc3ccccc3)c(Cl)c(N)c2F)c1F [Compound A Benzyl Ester, benzyl ester of 4-amino-3-chloro-5-fluoro-6-(4-chloro-2-fluoro-3-methoxy-phenyl)pyridine-2-carboxylic acid]",Visual Weed Control (%) - 21 DAA AMARE Obs,[1]; [5],20%
same,Visual Weed Control (%) - 21 DAA AMARE Obs,[1]; [6],38%
same,Visual Weed Control (%)-21 DAA KCHSC Obs,[2]; [5],20%
same,Visual Weed Control (%)-21 DAA KCHSC Obs,[2]; [6],41%
same,Visual Weed Control (%)-21 DAA KCHSC Obs,[2]; Compound A Benzyl Ester 10 g ai/ha,62%
same,Visual Weed Control (%) - 27 DAA BRAPP Obs,"[3]; Compound A Benzyl Ester 16 g ae/ha, Table 28",0%
same,Visual Weed Control (%)-28 DAA BRAPP Obs,[3]; [7],0%
same,Visual Weed Control (%) - 27 DAA BRAPP Obs,"[3]; Compound A Benzyl Ester 32 g ae/ha, Table 27",0%
same,Visual Weed Control (%) - 27 DAA BRAPP Obs,"[3]; Compound A Benzyl Ester 32 g ae/ha, Table 28",0%
same,Visual Weed Control (%)-28 DAA BRAPP Obs,[3]; [8],5%
same,Visual Weed Control (%)-29 DAA ABUTH Obs,[4]; [7],65%
same,Visual Weed Control (%)-29 DAA ABUTH Obs,[4]; [8],93%
